These compounds were tested against T1, Cbl-b (Homo sapiens, UniProt Q13191) (assay: Cbl-b probe displacement HTRF binding assay). Conditions: 0.4 nM Cbl-b, 150 nM BODIPY probe.
T1 construct: biotin (biotinylated protein)
Protocol: The affinity with which compounds of the present disclosure bind to Cbl-b was assessed using probe displacement homologous time resolved fluorescence (HTRF) assays. The assays used a BODIPY™ conjugated probe (Example 54 from WO 2020264398) and biotinylated Cbl-b. The assays were performed in assay buffer consisting of 20 mM Hepes, 150 mM NaCl, 0.01% Triton X-100, 0.5 mM TCEP, 0.01% BSA. On the day of the assay, a 20 point, 1:2 master serial dilution of each compound was prepared in DMSO to span a final concentration range of […] to 0 nM. Two hundred nanoliters of diluted compound was added to each well of a 384-well plate. Fifteen microliters of biotinylated- Cbl-b resuspended in assay buffer were added to each well and the plate incubated for 60 minutes at room temperature prior to addition of 5 μL of BODIPY™ probe in assay buffer. Final assay conditions included 0.4 nM of Cbl-b and 150 nM of BODIPY™ probe. After a further 15 minutes of incubation at room temperature, 5 μl of Streptavidin-Terbium cryptate reagent at 5-fold final concentration was added to each well of the 384-well plate. Binding of a probe to Cbl-b results in an increase of HTRF signal. HTRF signal was measured by Envision plate reader, while competition of a compound of the present disclosure with probe results in a decrease of signal. Percentage maximum activity in each test well was calculated based on DMSO (maximum activity, 0% displacement) and no protein control wells (baseline activity, 100% displacement). Binding affinity was determined from a dose response curve fitted using a standard four parameter fit equation. See Table 7 for data for compounds (Cbl-b Binding (IC50)).

T1 sequence (Q13191 whole entry, species assumed): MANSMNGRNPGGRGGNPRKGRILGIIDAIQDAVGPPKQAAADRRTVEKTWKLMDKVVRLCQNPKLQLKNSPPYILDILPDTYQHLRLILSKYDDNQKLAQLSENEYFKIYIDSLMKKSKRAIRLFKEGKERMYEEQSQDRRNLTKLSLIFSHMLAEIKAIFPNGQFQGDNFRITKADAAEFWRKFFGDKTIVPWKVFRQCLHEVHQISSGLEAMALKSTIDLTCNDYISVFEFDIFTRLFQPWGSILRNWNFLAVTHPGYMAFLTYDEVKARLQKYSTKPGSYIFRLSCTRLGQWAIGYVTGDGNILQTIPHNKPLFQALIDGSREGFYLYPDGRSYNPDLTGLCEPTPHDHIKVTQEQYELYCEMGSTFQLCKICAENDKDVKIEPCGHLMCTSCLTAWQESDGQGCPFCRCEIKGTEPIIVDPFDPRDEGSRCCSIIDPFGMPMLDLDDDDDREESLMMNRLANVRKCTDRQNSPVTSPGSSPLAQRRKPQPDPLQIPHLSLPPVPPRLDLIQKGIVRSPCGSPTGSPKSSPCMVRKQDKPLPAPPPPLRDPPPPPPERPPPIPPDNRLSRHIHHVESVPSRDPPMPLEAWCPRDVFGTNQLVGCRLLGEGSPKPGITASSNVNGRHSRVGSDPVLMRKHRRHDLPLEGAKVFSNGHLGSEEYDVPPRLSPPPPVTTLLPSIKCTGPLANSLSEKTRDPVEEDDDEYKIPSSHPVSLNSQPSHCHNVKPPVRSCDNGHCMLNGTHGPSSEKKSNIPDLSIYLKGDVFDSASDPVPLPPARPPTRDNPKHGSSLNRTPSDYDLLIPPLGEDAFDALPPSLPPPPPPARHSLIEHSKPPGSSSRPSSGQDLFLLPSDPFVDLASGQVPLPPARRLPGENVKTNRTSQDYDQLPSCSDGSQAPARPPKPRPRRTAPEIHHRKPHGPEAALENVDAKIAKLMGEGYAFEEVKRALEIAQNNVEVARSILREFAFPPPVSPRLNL

IC50, < 100 nM:
CC(C)CNCc1cc(C(=O)Nc2cc(-c3ccc(C#N)cc3C(=O)N3CC(F)(F)C3)cc(C3CC3)n2)c(=O)n(C)c1 [Example 175]
COc1ccc(-c2cc(NC(=O)c3cc(CN[C@@H](C)[C@H](C)OC)cn(C4CC4)c3=O)nc(C3CC3)c2)c(C(=O)N2CC(F)C2)c1 [Example 269]
COCCNCc1cc(C(=O)Nc2cc(-c3ccc(Cl)cc3C(=O)N3CC(F)(F)C3)cc(C3CC3)n2)c(=O)n(C2CC2)c1 [Example 382]
O=C(Nc1cc(-c2ccc(OC(F)F)cc2C(=O)N2CC(F)(F)C2)cc(C2CC2)n1)c1cc(CNC[C@@H]2COCCO2)cn(C2CC2)c1=O [Example 379]
CO[C@@H](C)CNCc1cc(C(=O)Nc2cc(-c3c(F)cc(Cl)cc3C(=O)N3CC(F)(F)C3)cc(NC(C)C)n2)c(=O)n(C2CC2)c1 [Example 198]
COc1ccc(-c2cc(NC(=O)c3cc(CN[C@@H](C)C4CCC4)cn(C)c3=O)nc(C3CC3)c2)c(C(=O)N2CC(F)C2)c1 [Example 296]
CO[C@@H](C)CNCc1cc(C(=O)Nc2cc(-c3ccc(OC(F)F)cc3C(=O)N3CC(F)(F)C3)cc(C3CC3)n2)c(=O)n(C)c1 [Example 176]
COc1ccc(-c2cc(NC(=O)c3cc(CN[C@@H](C)C4CCC4)cn(C4CC4)c3=O)nc(OCC(F)F)c2)c(C(=O)N2CC(F)(F)C2)c1 [Example 343]
CC(C)Oc1cc(-c2ccc(C#N)cc2C(=O)N2CC(F)(F)C2)cc(NC(=O)c2cc(CNC[C@@H]3COCCO3)cn(C3CC3)c2=O)n1 [Example 371]
CO[C@@H](C)CNCc1cc(C(=O)Nc2cc(-c3ccc(Cl)cc3C(=O)N3CC(C(F)(F)F)C3)cc(C3CC3)n2)c(=O)n(C2CC2)c1 [Example 157, N-[4-(4-Chloro-2-{[3-(trifluoromethyl)-1-azetidinyl]carbonyl}phenyl)-6-cyclopropyl-2-pyridyl]-1-cyclopropyl-5-{[(S)-2-methoxypropylamino]methyl}-2-oxo-1,2-dihydronicotinamide]
N#Cc1ccc(-c2cc(NC(=O)c3cc(CN[C@H]4CCC[C@@H]4O)cn(C4CC4)c3=O)nc(C3CC3)c2)c(C(=O)N2CC(F)(F)C2)c1 [Example 409]
COCCNCc1cc(C(=O)Nc2cc(-c3ccc(C#N)cc3C(=O)N3CC(F)(F)C3)cc(C3CC3)n2)c(=O)n(C2CC2)c1 [Example 374]
CCNc1cc(-c2ccc(Cl)cc2C(=O)N2CC(F)(F)C2)cc(NC(=O)c2cc(CNC[C@H](C)OC)cn(C)c2=O)n1 [Example 172]
CO[C@@H](C)CNCc1cc(C(=O)Nc2cc(-c3ccc(C#N)cc3C(=O)N3CC(F)(F)C3)cc(C3CC3)n2)c(=O)n(C)c1 [Example 178]
O=C(Nc1cc(-c2ccc(OC(F)F)cc2C(=O)N2CC(F)(F)C2)cc(OCC(F)F)n1)c1cc(CNC[C@@H]2CCCO2)cn(C2CC2)c1=O [Example 164]
CC(C)Nc1cc(-c2ccc(OC(F)F)cc2C(=O)N2CC(F)C2)cc(NC(=O)c2cc(CNC[C@@H]3CCCO3)cn(C)c2=O)n1 [Example 299]
CC(C)CNCc1cc(C(=O)Nc2cc(-c3c(F)cc(Cl)cc3C(=O)N3CC(F)(F)C3)cc(NC(C)C)n2)c(=O)n(C2CC2)c1 [Example 201]
CC(C)Nc1cc(-c2ccc(Cl)cc2C(=O)N2CC(F)(F)C2)cc(NC(=O)c2cc(CNC[C@@H]3CCCO3)cn(C3CC3)c2=O)n1 [Example 223]
CO[C@@H](C)CNCc1cc(C(=O)Nc2cc(-c3ccc(C)cc3C(=O)N3CC(F)(F)C3)cc(OCC(F)F)n2)c(=O)n(C2CC2)c1 [Example 349]
CO[C@H]1CC[C@@H]1NCc1cc(C(=O)Nc2cc(-c3ccc(C#N)cc3C(=O)N3CC(F)(F)C3)cc(C3CC3)n2)c(=O)n(C2CC2)c1 [Example 402]
CO[C@@H](C)CNCc1cc(C(=O)Nc2cc(-c3ccc(C#N)cc3C(=O)N3CC(F)(F)C3)cc(C3CC3)n2)c(=O)n(CC(F)(F)F)c1 [Example 174]
CO[C@@H](C)CNCc1cc(C(=O)Nc2cc(-c3ccc(Cl)cc3C(=O)N3CC(F)(F)C3)cc(OCC(F)F)n2)c(=O)n(C2CC2)c1 [Example 162]
N#Cc1ccc(-c2cc(NC(=O)c3cc(CNC4CCCC4)cn(C4CC4)c3=O)nc(C3CC3)c2)c(C(=O)N2CC(F)(F)C2)c1 [Example 397]
CO[C@@H](C)CNCc1cc(C(=O)Nc2cc(-c3ccc(C#N)cc3C(=O)N3CC(F)(F)C3)cc(OC(C)C)n2)c(=O)n(C)c1 [Example 117, N-(4-{4-cyano-2-[(3,3-difluoro-1-azetidinyl)carbonyl]phenyl}-6-isopropoxy-2-pyridyl)-5-{[(S)-2-methoxypropylamino]methyl}-1-methyl-2-oxo-1,2-dihydronicotinamide]
CCOc1cc(-c2ccc(C#N)cc2C(=O)N2CC(F)(F)C2)cc(NC(=O)c2cc(CNCC(C)C)cn(C3CC3)c2=O)n1 [Example 202]
CCNc1cc(-c2ccc(Cl)cc2C(=O)N2CC(F)(F)C2)cc(NC(=O)c2cc(CNC[C@@H]3CCCO3)cn(C)c2=O)n1 [Example 182]
COc1ccc(-c2cc(NC(=O)c3cc(CN[C@@H](C)C4CCC4)cn(C4CC4)c3=O)nc(OC(C)C)c2)c(C(=O)N2CC(F)(F)C2)c1 [Example 276]
COc1ccc(-c2cc(NC(=O)c3cc(CN[C@@H](CO)C4CCC4)cn(C4CC4)c3=O)nc(OC(C)C)c2)c(C(=O)N2CC(F)C2)c1 [Example 318]
CO[C@@H](C)[C@H](C)NCc1cc(C(=O)Nc2cc(-c3ccc(OC(F)F)cc3C(=O)N3CC(F)(F)C3)cc(OC(C)C)n2)c(=O)n(C)c1 [Example 116, N-(4-{2-[(3,3-difluoro-1-azetidinyl)carbonyl]-4-difluoromethoxyphenyl}-6-isopropoxy-2-pyridyl)-5-{[(1S,2S)-2-methoxy-1-methylpropylamino]methyl}-1-methyl-2-oxo-1,2-dihydronicotinamide]
CC(C)CNCc1cc(C(=O)Nc2cc(-c3c(F)cc(C#N)cc3C(=O)N3CC(F)(F)C3)cc(OC(C)C)n2)c(=O)n(C2CC2)c1 [Example 128, N-(4-{4-cyano-2-[(3,3-difluoro-1-azetidinyl)carbonyl]-6-fluorophenyl}-6-isopropoxy-2-pyridyl)-1-cyclopropyl-5-[(isobutylamino)methyl]-2-oxo-1,2-dihydronicotinamide]
CO[C@@H](C)CNCc1cc(C(=O)Nc2cc(-c3ccc(Cl)cc3C(=O)N3CC(F)C3)cc(OC(C)C)n2)c(=O)n(C2CC2)c1 [Example 253]
CC(C)Oc1cc(-c2ccc(C#N)cc2C(=O)N2CC(F)(F)C2)cc(NC(=O)c2cc(CNC(C)C3CC3)cn(C3CC3)c2=O)n1 (stereo in doubt) [Example 140, N-(4-{4-cyano-2-[(3,3-difluoro-1-azetidinyl)carbonyl]phenyl}-6-isopropoxy-2-pyridyl)-1-cyclopropyl-5-{[(S)-1-cyclopropylethylamino]methyl}-2-oxo-1,2-dihydronicotinamide]
CC(C)Oc1cc(-c2ccc(F)cc2C(=O)N2CC(F)(F)C2)cc(NC(=O)c2cc(CNCC3CC3)cn(C3CC3)c2=O)n1 [Example 139, N-(4-{2-[(3,3-difluoro-1-azetidinyl)carbonyl]-4-fluorophenyl}-6-isopropoxy-2-pyridyl)-1-cyclopropyl-5-{[(cyclopropylmethyl)amino]methyl}-2-oxo-1,2-dihydronicotinamide]
CC(C)CNCc1cc(C(=O)Nc2cc(-c3ccc(C#N)cc3C(=O)N3CC(F)(F)C3)cc(OC(C)C)n2)c(=O)n(C2CC2)c1 [Example 97, N-(4-{4-cyano-2-[(3,3-difluoro-1-azetidinyl)carbonyl]phenyl}-6-isopropoxy-2-pyridyl)-1-cyclopropyl-5-[(isobutylamino)methyl]-2-oxo-1,2-dihydronicotinamide]
CC(C)(F)CNCc1cc(C(=O)Nc2cc(-c3ccc(C#N)cc3C(=O)N3CC(F)(F)C3)cc(C3CC3)n2)c(=O)n(C2CC2)c1 [Example 244]
COc1ccc(-c2cc(NC(=O)c3cc(CNC[C@H](C)OC)cn(C)c3=O)nc(OC(C)C)c2)c(C(=O)N2CC(F)C2)c1 [Example 302]
CCn1cc(CNC[C@H](C)OC)cc(C(=O)Nc2cc(-c3ccc(C#N)cc3C(=O)N3CC(F)(F)C3)cc(C3CC3)n2)c1=O [Example 170]
CCOc1cc(-c2ccc(Cl)cc2C(=O)N2CC(F)(F)C2)cc(NC(=O)c2cc(CNC[C@@H]3CCCO3)cn(C3CC3)c2=O)n1 [Example 225]

— patent US20260116868A1 (Arcus Biosciences, Inc., priority 2023, published 2026)
